Source: publication PMC6982354, “Promising New Inhibitors of Tyrosyl-DNA Phosphodiesterase I (Tdp 1) Combining 4-Arylcoumarin and Monoterpenoid Moieties as Components of Complex Antitumor Therapy” (International Journal of Molecular Sciences, 2019)
Read-outs that look alike come from different tables or passages of the source.

Tests used:
[1] = target: T1, Tdp1 (Homo sapiens, UniProt Q9NUW8); experiment: Real-time detection of Tdp1 activity (FAM/BHQ1 oligonucleotide biosensor); format: biochemical; conditions: Tdp1 inhibition, 6-point concentration response curve
T1 construct: made in house
Method: A previously designed, real-time, hexadecameric oligonucleotide biosensor with 5(6)-carboxyfluorescein (FAM) at the 5′ end and fluorophore quencher BHQ1 (Black Hole Quencher-1) at the 3′-end was used to determine the inhibitory properties of the new compounds.
Real-Time Detection of Tdp1 Activity. The Tdp1 activity measurements were carried out as described. […] Tdp1 inhibition was calculated by comparing the rate of increase in fluorescence in the presence of the compound to that of DMSO control wells. IC50 values were determined using a 6-point concentration response curve. The data were imported into the MARS Data Analysis 2.0 program (BMG LABTECH), and the slope during the linear phase (here data from 0 to 7 min) was calculated.

[2] = system: Lewis carcinoma; experiment: Lifespan of mice with ascites variant of Lewis carcinoma; format: in vivo; conditions: for prolongation of life: monotherapy at selected doses (tpc 0.5 mg/kg or 3ba 120 mg/kg), unreliable, p > 0.05; for increase in lifespan: tpc + 3ba 120 mg/kg
Method: We then examined the effect of 3ba in combination with tpc on the lifespan of mice. C57BL/6 mice were intraperitoneally inoculated with the ascites variant of Lewis carcinoma. Group 1: control without treatment; group 2: tpc 0.5 mg/kg intraperitoneally; group 3: tpc and 3ba intraperitoneally 120 mg/kg; and group 4: 3ba 120 mg/kg only.
(§1) Lab animals. Thre-e to four-month-old male and female C57Bl/6 mice from the breeding colony of the Institute of Cytology and Genetics, SB RAS, were used in the study. The animals were kept on sawdust in plastic cages with 5–7 mice per cage, with free access to ground food (“Laboratorkorm”, Moskow, Russia) and tap water. All experiments were performed in accordance with protocols approved by the Animal Care and Use Committee of the Institute of Cytology and Genetics. Also, all experimental procedures were performed in accordance with the Directive 2010/63/EU for animal experiments.
(§2) Tumor models. The experimental tumor used was Lewis Lung Carcinoma (LLC) and Krebs-2. The animals were treated with tpc and the Tdp1 inhibitor 3ba two days after tumor transplantation. The tumor was transplanted into the muscles of the thigh by 0.2 million cells per mouse. Tpc (Sindan Pharma SRL, Romania) was administered intraperitoneally at a single dose of 0.5 mg/kg; Tdp1 inhibitor 3ba was administrated intraperitoneally at a single dose of 20, 40, or 80 mg/kg (for Krebs-2), or 120 mg/kg (for LLC) in 15% dimethyl sulfoxide (DMSO)–10% Tween-80 suspension in water (0.2 mL of suspension per mouse) simultaneously with tpc. Control mice were injected with a DMSO-Tween-80 mixture into the stomach.
(§3) Statistical analysis. The experimenter measuring and calculating the primary animal data (tumor size, lifespan) was blinded. After unblinding, the animal data were statistically processed using oneway ANOVA. Post-hoc testing was completed using Turkey’s Honestly Significant Difference (HSD). p < 0.05 was considered to be statistically significant. The statistical package […] version 12.5 was used for analysis. All results are expressed as mean ± SEM.

[3] = target: T2, human Tdp1 (residues 149-608) (Homo sapiens, UniProt Q9NUW8); experiment: Intrinsic tryptophan fluorescence quenching binding assay; conditions: Tdp1 10 µM, 20 mM Tris, 250 mM NaCl, pH 8; triplicate; read-out: dissociation constant (KD)
T2 construct: human Tdp1 (residues 149-608); made in house; host or cells: Escherichia coli BL21 (DE3)
From the text: Derivatives of nopol were the most complex compounds to synthesize and purify. Therefore, they were excluded from further consideration. Since we previously obtained contradictory results in in vivo experiments with the myrtenol derivative 2 (unpublished data), in this work, we decided to focus on geraniol derivatives for the in vivo studies. […] In addition to the activity assay that we reported above, we wanted to confirm the interactions between compound 3ba and Tdp1 before progressing to in vivo studies. Using an intrinsic tryptophan fluorescence quenching assay that we previously applied to study the binding interactions of Tdp1 and its inhibitors, we evaluated the binding of compound 3ba to recombinant Tdp1. Clear quenching of the Tdp1 intrinsic fluorescence was observed upon the addition of 3ba (Supplementary Figure S1). […]
Binding Assay. […] Intrinsic protein fluorescence was measured using PerkinElmer EnSpire Multimode Reader. […] The excitation wavelength was 280 nm and the intrinsic fluorescence was measured at 350 nm. […] Dissociation constants (KD) were calculated using the following formula, that takes nonspecific binding into account. […]
In this formula, I indicates changes in fluorescence intensity from the titration, Imax indicates the maximum fluorescence intensity change, [Lᴛ] is the titration ligand concentration, and Ns is the non-specific term. […]

[4] = system: Krebs-2 carcinoma; experiment: Influence on antitumor effect of tpc, Krebs-2 ascites tumor model; format: in vivo, mice; conditions: for weight of the ascitic tumor: compared to only tpc
Method: A study of the influence of 3ba on the antitumor effect of tpc (topotecan) was performed using a murine Krebs-2 carcinoma model. An ascitic tumor model combines the advantages of in vitro and in vivo approaches in studying the cytotoxic effect of compounds, since ascitic cells grow in the context of the organism (in vivo), and the intraperitoneal administration of drug ensures its direct contact with tumor cells (in vitro). The experiments were performed using female C57BL/6 mice, which were injected intraperitoneally with 2 × 10^5 ascitic cells on day zero. The mice were divided into six groups of ten animals each.
as §1, §2, §3

[5] = target: T1, Tdp1; set-up: method as in PMID 27658793; conditions: Tdp1 inhibition, Figure 1; cited from earlier work
[6] = system: human cancer cells; set-up: method as in PMID 27658793; conditions: compound in non-toxic doses; cited from earlier work

T1 sequence (Q9NUW8 whole entry): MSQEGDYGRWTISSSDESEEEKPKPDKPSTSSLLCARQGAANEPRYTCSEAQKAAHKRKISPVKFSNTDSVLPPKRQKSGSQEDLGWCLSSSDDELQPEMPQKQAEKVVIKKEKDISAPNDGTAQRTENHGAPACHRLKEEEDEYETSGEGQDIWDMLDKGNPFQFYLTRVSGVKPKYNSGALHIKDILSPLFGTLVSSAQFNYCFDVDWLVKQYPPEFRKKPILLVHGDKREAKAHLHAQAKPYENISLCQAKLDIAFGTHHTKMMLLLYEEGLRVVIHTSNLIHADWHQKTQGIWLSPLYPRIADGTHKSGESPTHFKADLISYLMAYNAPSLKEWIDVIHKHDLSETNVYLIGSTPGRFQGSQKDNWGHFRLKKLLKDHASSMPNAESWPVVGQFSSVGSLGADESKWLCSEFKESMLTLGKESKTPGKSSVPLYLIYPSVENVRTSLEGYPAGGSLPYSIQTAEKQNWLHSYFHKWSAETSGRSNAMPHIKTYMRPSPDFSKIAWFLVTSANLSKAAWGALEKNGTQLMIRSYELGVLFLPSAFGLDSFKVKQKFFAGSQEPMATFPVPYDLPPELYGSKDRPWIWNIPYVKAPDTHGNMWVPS
T2 sequence (Q9NUW8 149-608): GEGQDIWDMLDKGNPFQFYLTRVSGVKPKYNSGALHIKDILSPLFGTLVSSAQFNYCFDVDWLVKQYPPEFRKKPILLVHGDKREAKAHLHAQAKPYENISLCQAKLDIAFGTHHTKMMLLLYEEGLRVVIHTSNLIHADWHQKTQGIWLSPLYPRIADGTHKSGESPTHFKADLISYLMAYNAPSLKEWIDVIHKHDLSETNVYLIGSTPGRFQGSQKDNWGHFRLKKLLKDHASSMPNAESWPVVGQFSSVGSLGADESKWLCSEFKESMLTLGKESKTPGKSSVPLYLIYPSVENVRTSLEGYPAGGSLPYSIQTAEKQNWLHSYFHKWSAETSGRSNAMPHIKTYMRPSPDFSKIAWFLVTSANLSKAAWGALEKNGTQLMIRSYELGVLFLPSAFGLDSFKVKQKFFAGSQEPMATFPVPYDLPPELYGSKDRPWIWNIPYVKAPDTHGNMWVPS

For `CC(C)=CCC/C(C)=C/COc1ccc2c(-c3ccc(F)cc3)cc(=O)oc2c1` [3ba, (E)-7-(3,7-Dimethylocta-2,6-dienyloxy)-4-(4-fluorophenyl)-2H-chromen-2-one], the IC50 [1] was 0.62 µM, the prolongation of life [2] was 13–19% and the increase in lifespan ([2]; compared with mice receiving only tpc, p = 0.0065) was 26%. The increase in lifespan ([2]; compared with the control group, p = 0.0002) was 42%, the Kd [3] was 63 ± 11 µM and the “weight of the ascitic tumor / tumor growth” value ([4]; 3ba 20 mg/kg i.p. + tpc 0.5 mg/kg i.p. (group 5)) was “did not affect tumor growth”. The “weight of the ascitic tumor” value ([4]; 3ba 40 mg/kg i.p. + tpc 0.5 mg/kg i.p. (group 4)) was “decrease in ascites weight, although the difference between groups 2 and 4 was not significant”, the “weight of the ascitic tumor” value ([4]; 3ba 80 mg/kg i.p. + tpc 0.5 mg/kg i.p. (group 3)) was “significant decrease” and the “weight of the ascitic tumor / tumor growth” value ([4]; 3ba 80 mg/kg i.p. in the absence of tpc (group 6)) was “did not affect tumor growth”. For the same compound, the “number of tumor cells in ascites” value ([4]; tpc 0.5 mg/kg + 3ba 80 mg/kg i.p. (group 3), only one mouse gave ascitic fluid) was 250 mln.
Work on `COc1ccc(-c2cc(=O)oc3cc(OCc4ccccc4)ccc23)cc1` [10d, 7-(Benzyloxy)-4-(4-methoxyphenyl)-2H-chromen-2-one] yielded an IC50 [1] of 3.31 ± 0.98 µM.
For `COc1cccc(COc2ccc3c4c(c(=O)oc3c2)CCCC4)c1` [compound 1], the IC50 [5] is given as 5 µM.
In the case of `CC1(C)C2CC=C(COc3ccc4c5c(c(=O)oc4c3)CCC5)C1C2` (stereo not drawn) [compound 2], the “effect on the cytotoxic activity of CPT” value [6] is given as “significantly increased”.
In the case of `CC[C@@]1(O)C(=O)OCc2c1cc1n(c2=O)Cc2cc3c(CN(C)C)c(O)ccc3nc2-1` [tpc, topotecan, reference compound], the prolongation of life [2] is reported as 13–19% and the “number of tumor cells in ascites” value ([4]; tpc only, 0.5 mg/kg i.p. (group 2), control 1750 million per mouse) is reported as 950 mln.
